Publication PMC9693575, “Isopropyl Amino Acid Esters Ionic Liquids as Vehicles for Non-Steroidal Anti-Inflammatory Drugs in Potential Topical Drug Delivery Systems with Antimicrobial Activity” (International Journal of Molecular Sciences, 2022)
Like-named read-outs stand apart in the source and are kept apart here.

How the values were obtained:
Micrococcus Luteus = assay: Disc diffusion antimicrobial susceptibility test, Micrococcus luteus; type: cell-based; parameters: key to Inhibition diameter: -: no growth of the organism
[1] = pKa / pKB by potentiometric acid-base titration and formation constant log(KS); details: calculated from pKA of acid and pKB of base
Procedure: Determination of formation constant pKs
Zabrze, Poland). For the measurement of pKA acids, 0.1 M NaOH was used. In order to
ester hydrochloride, HCl aqueous solution, was added in an amount that allowed reach-
After that, an acid-base titration was made out by adding dropwise 5 mM

Escherichia coli = assay: Disc diffusion antimicrobial susceptibility test, Escherichia coli; type: cell-based; parameters: key to Inhibition diameter: -: no growth of the organism
Procedure: (§1) The plates were incubated for 24 h at 37 °C.

[2] = cited from earlier work
[3] = tested on: Staphylococcus epidermidis; assay: Disc diffusion antimicrobial susceptibility test, Staphylococcus epidermidis; type: cell-based; parameters: key to Inhibition diameter: -: no growth of the organism
Procedure: as §1

[4] = cited from earlier work; for TDTGmax, maximum decomposition temperature: DTG
[5] = 25 °C; cited from earlier work
[6] = Solubility in water and phosphate buffers; details: for Solubility in Water, as active substance: deionized water, 25 °C; for Solubility in Water, as active substance / Solubility in Phosphate Buffer pH = 5.4, as active substance / Solubility in Phosphate Buffer pH = 7.4, as active substance: AS = unmodified acid; for Solubility in Phosphate Buffer pH = 5.4, as active substance: pH 5.4, 25 °C; for Solubility in Phosphate Buffer pH = 7.4, as active substance: pH 7.4, 25 °C
Excerpt: This study aims to compare the influence of amino acid structure on the physicochemical properties of NSAID salts with the isopropyl ester of amino acids.

[7] = n-octanol-water partition coefficient (logP), shake flask method; type: physicochemical; details: n-octanol-water, shake flask; read-out: LogP
[8] = Solubility in organic solvents (modified Vogel's method); details: 25 °C
[9] = Thermogravimetric analysis (thermal stability); details: air atmosphere, 10 °C min−1
Method in brief: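 Samples of 5–8 mg heated in Al2O3 crucibles under air (25 cm3 min−1) with nitrogen flow (10 cm3 min−1). Start of thermal degradation taken as the onset of the TG curve in the first decomposition phase.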

[10] = solution transferred to disc 25 mg cm^−3
[11] = solution transferred to disc 50 mg cm^−3
[12] = solution transferred to disc 100 mg cm^−3
[13] = solution transferred to disc 200 mg cm^−3
[14] = solution transferred to disc 400 mg cm^−3
[15] = solution transferred to disc 600 mg cm^−3
[16] = solution transferred to disc 800 mg cm^−3
[17] = solution transferred to disc 1000 mg cm^−3
[18] = Micrococcus luteus, 24 h, solution transferred to disc 600 mg cm^−3, read-out: Inhibition diameter
[19] = Micrococcus luteus, 24 h, solution transferred to disc 800 mg cm^−3, read-out: Inhibition diameter
[20] = Escherichia coli, 24 h, solution transferred to disc 400 mg cm^−3, read-out: Inhibition diameter
[21] = Escherichia coli, 24 h, solution transferred to disc 600 mg cm^−3, read-out: Inhibition diameter

Q: For CC(C)Cc1ccc(C(C)C(=O)O)cc1.CC(C)OC(=O)C(N)C(C)C (mixture of isomers) [[L-ValOiPr][IBU]], which Inhibition diameter (Micrococcus Luteus; [10]) is on record?
A: 8.4 ± 0.3 mm

Q: What about the Inhibition diameter (Micrococcus Luteus; [11]) of the same compound?
A: 9.1 ± 0.2 mm

Q: And the Inhibition diameter (Micrococcus Luteus; [12])?
A: 9.6 ± 0.1 mm

Q: What about the Inhibition diameter (Micrococcus Luteus; [13]) of the same compound?
A: 10.5 ± 0.2 mm

Q: And the Inhibition diameter (Micrococcus Luteus; [14])?
A: 11.2 ± 0.2 mm

Q: And the Inhibition diameter (Micrococcus Luteus; [15])?
A: 11.7 ± 0.2 mm

Q: And the Inhibition diameter (Micrococcus Luteus; [16])?
A: 12.6 ± 0.3 mm

Q: What about the Inhibition diameter (Micrococcus Luteus; [17]) of the same compound?
A: 13.2 ± 0.2 mm

Q: And the “Log(KS) formation constant” value [1]?
A: 5.56

Q: What about the Inhibition diameter (Escherichia coli; [10]) of the same compound?
A: -

Q: What about the Inhibition diameter (Escherichia coli; [11]) of the same compound?
A: -

Q: What about the Inhibition diameter (Escherichia coli; [12]) of the same compound?
A: -

Q: What about the Inhibition diameter (Escherichia coli; [13]) of the same compound?
A: 6.2 ± 0.1 mm

Q: What about the Inhibition diameter (Escherichia coli; [14]) of the same compound?
A: 6.3 ± 0.2 mm

Q: What about the Inhibition diameter (Escherichia coli; [15]) of the same compound?
A: 6.8 ± 0.5 mm

Q: What about the Inhibition diameter (Escherichia coli; [17]) of the same compound?
A: 7.1 ± 0.3 mm

Q: What about the “Solubility in Phosphate Buffer pH = 5.4” value ([2]; pH 5.4) of the same compound?
A: 2.351 ± 0.027 [45] g dm^−3

Q: What about the “Solubility in Phosphate Buffer pH = 5.4, as active substance” value ([2]; pH 5.4) of the same compound?
A: 1.326 ± 0.027 [45] gAS dm^−3

Q: What about the “Solubility in Phosphate Buffer pH = 7.4” value ([2]; pH 7.4) of the same compound?
A: 4.998 ± 0.018 [45] g dm^−3

Q: What about the “Solubility in Phosphate Buffer pH = 7.4, as active substance” value ([2]; pH 7.4) of the same compound?
A: 2.821 ± 0.018 [45] gAS dm^−3

Q: What about the Inhibition diameter [3, 10] of the same compound?
A: 7.3 ± 0.2 mm

Q: What about the Inhibition diameter [3, 11] of the same compound?
A: 10.4 ± 0.1 mm

Q: And the Inhibition diameter [3, 12]?
A: 12.8 ± 0.2 mm

Q: And the Inhibition diameter [3, 13]?
A: 13.2 ± 0.2 mm

Q: What about the Inhibition diameter [3, 14] of the same compound?
A: 16.3 ± 0.3 mm

Q: And the Inhibition diameter [3, 15]?
A: 17.7 ± 0.3 mm

Q: And the Inhibition diameter [3, 16]?
A: 18.4 ± 0.2 mm

Q: And the Inhibition diameter [3, 17]?
A: 18.9 ± 0.3 mm

Q: And the “TDTGmax, maximum decomposition temperature” value [4]?
A: 215.5 [50] °C

Q: Which results are given for CC(C)OC(=O)C(N)C(C)C.O=C(O)c1ccccc1O [[L-ValOiPr][SA]]?
A: zone of inhibition at 600000 µg/mL (Micrococcus Luteus; [18]): 8.6 ± 0.3 mm; zone of inhibition at 800000 µg/mL (Micrococcus Luteus; [19]): 15.9 ± 1.2 mm; Inhibition diameter (Micrococcus Luteus; [10]): -; Inhibition diameter (Micrococcus Luteus; [11]): -; Inhibition diameter (Micrococcus Luteus; [12]): -; Inhibition diameter (Micrococcus Luteus; [13]): -; Inhibition diameter (Micrococcus Luteus; [14]): -; Solubility in Chloroform (39.1) [5]: ○ [49] (soluble >100 mg cm^−3); Solubility in DMSO (45.1) [5]: ○ [49] (soluble >100 mg cm^−3); Solubility in Dichloromethane (40.7) [5]: ○ [49] (soluble >100 mg cm^−3); Solubility in Diethyl Ether (34.5) [5]: ◐ [49] (partially soluble 33–100 mg cm^−3); Solubility in Ethanol (59.1) [5]: ○ [49] (soluble >100 mg cm^−3); Solubility in Ethyl Acetate (38.1) [5]: ◐ [49] (partially soluble 33–100 mg cm^−3); Solubility in Hexane (31.0) [5]: ● [49] (insoluble <33 mg cm^−3); Solubility in Toluene (33.9) [5]: ○ [49] (soluble >100 mg cm^−3); Solubility in Water, as active substance [6]: 7.761 ± 2.044 gAS dm^−3; Solubility in Phosphate Buffer pH = 5.4, as active substance [6]: 5.259 ± 0.014 gAS dm^−3; solubility thermodynamic ([6]; pH 5.4, aqueous buffer): 11.32 ± 0.014 mg/mL; Solubility in Phosphate Buffer pH = 7.4, as active substance [6]: 8.702 ± 0.027 gAS dm^−3; solubility thermodynamic ([6]; pH 7.4, aqueous buffer): 18.73 ± 0.027 mg/mL; solubility thermodynamic ([6]; water): 16.7 ± 2.04 mg/mL; Log(KS) formation constant [1]: 7.03; logP [7]: 1.61 ± 0.057; zone of inhibition at 50000 µg/mL (Escherichia coli; Escherichia coli, 24 h, solution transferred to disc 50 mg cm^−3, read-out: Inhibition diameter): 6.2 ± 0.1 mm; zone of inhibition at 100000 µg/mL (Escherichia coli; Escherichia coli, 24 h, solution transferred to disc 100 mg cm^−3, read-out: Inhibition diameter): 6.3 ± 0.2 mm; zone of inhibition at 200000 µg/mL (Escherichia coli; Escherichia coli, 24 h, solution transferred to disc 200 mg cm^−3, read-out: Inhibition diameter): 7.5 ± 0.1 mm; zone of inhibition at 400000 µg/mL (Escherichia coli; [20]): 8.9 ± 0.4 mm; zone of inhibition at 600000 µg/mL (Escherichia coli; [21]): 12.6 ± 0.3 mm; Inhibition diameter (Escherichia coli; [10]): -; zone of inhibition at 600000 µg/mL ([3]; Staphylococcus epidermidis, 24 h, solution transferred to disc 600 mg cm^−3, read-out: Inhibition diameter): 6.7 ± 0.3 mm; zone of inhibition at 800000 µg/mL ([3]; Staphylococcus epidermidis, 24 h, solution transferred to disc 800 mg cm^−3, read-out: Inhibition diameter): 8.4 ± 0.3 mm; Inhibition diameter [3, 10]: -; Inhibition diameter [3, 11]: -; Inhibition diameter [3, 12]: -; Inhibition diameter [3, 13]: -; Inhibition diameter [3, 14]: -; TDTGmax, maximum decomposition temperature [4]: 197.6 [49] °C; TTGonset, the onset of the thermal degradation ([4]; TG): 124.6 [49] °C

Q: What does the source list for CC(C)OC(=O)[C@@H](N)[C@@H](C)O.O=C(O)c1ccccc1O [[L-ThrOiPr][SA], L-threonine isopropyl ester salicylate]?
A: concentrations at which the antimicrobial effect was observed (Micrococcus Luteus; M. Luteus): in all tested concentration ranges; zone of inhibition at 25000 µg/mL (Micrococcus Luteus; Micrococcus luteus, 24 h, solution transferred to disc 25 mg cm^−3, read-out: Inhibition diameter): 6.3 ± 0.1 mm; zone of inhibition at 50000 µg/mL (Micrococcus Luteus; Micrococcus luteus, 24 h, solution transferred to disc 50 mg cm^−3, read-out: Inhibition diameter): 6.6 ± 0.2 mm; zone of inhibition at 100000 µg/mL (Micrococcus Luteus; Micrococcus luteus, 24 h, solution transferred to disc 100 mg cm^−3, read-out: Inhibition diameter): 7 ± 0.1 mm; zone of inhibition at 200000 µg/mL (Micrococcus Luteus; Micrococcus luteus, 24 h, solution transferred to disc 200 mg cm^−3, read-out: Inhibition diameter): 7.6 ± 0.2 mm; zone of inhibition at 400000 µg/mL (Micrococcus Luteus; Micrococcus luteus, 24 h, solution transferred to disc 400 mg cm^−3, read-out: Inhibition diameter): 8.1 ± 0.1 mm; zone of inhibition at 600000 µg/mL (Micrococcus Luteus; [18]): 8.7 ± 0.5 mm; zone of inhibition at 800000 µg/mL (Micrococcus Luteus; [19]): 10.2 ± 0.7 mm; Solubility in Water, as active substance [6]: 17.925 ± 0.241 gAS dm^−3; Solubility in Phosphate Buffer pH = 5.4, as active substance [6]: 13.978 ± 0.018 gAS dm^−3; solubility thermodynamic ([6]; pH 5.4, aqueous buffer): 30.189 ± 0.018 mg/mL; Solubility in Phosphate Buffer pH = 7.4, as active substance [6]: 18.777 ± 0.125 gAS dm^−3; solubility thermodynamic ([6]; pH 7.4, aqueous buffer): 40.76 ± 0.125 mg/mL; solubility thermodynamic ([6]; water): 38.71 ± 0.241 mg/mL; Log(KS) formation constant [1]: 7.94; logP [7]: 1.55 ± 0.021; zone of inhibition at 400000 µg/mL (Escherichia coli; [20]): 7.3 ± 0.2 mm; zone of inhibition at 600000 µg/mL (Escherichia coli; [21]): 9.3 ± 0.4 mm; Inhibition diameter (Escherichia coli; [10]): -; Inhibition diameter (Escherichia coli; [11]): -; Inhibition diameter (Escherichia coli; [12]): -; Inhibition diameter (Escherichia coli; [13]): -; Inhibition diameter [3, 10]: -; Inhibition diameter [3, 11]: -; Inhibition diameter [3, 12]: -; Inhibition diameter [3, 13]: -; Inhibition diameter [3, 14]: -; Inhibition diameter [3, 15]: -; Inhibition diameter [3, 16]: -; Inhibition diameter [3, 17]: -; Solubility in Chloroform (39.1) [8]: ○ (soluble >100 mg cm^−3); Solubility in DMSO (45.1) [8]: ○ (soluble >100 mg cm^−3); Solubility in Dichloromethane (40.7) [8]: ○ (soluble >100 mg cm^−3); Solubility in Diethyl Ether (34.5) [8]: ● (insoluble <33 mg cm^−3); Solubility in Ethanol (59.1) [8]: ○ (soluble >100 mg cm^−3); Solubility in Ethyl Acetate (38.1) [8]: ○ (soluble >100 mg cm^−3); Solubility in Hexane (31.0) [8]: ● (insoluble <33 mg cm^−3); Solubility in Toluene (33.9) [8]: ● (insoluble <33 mg cm^−3); TDTGmax, maximum decomposition temperature ([9]; DTG): 191.4 °C; TTGonset, the onset of the thermal degradation ([9]; TG): 127.2 °C
